The text below walks through data of patent US20250127165A1, “USE OF 2-AMINO-3-PHENYLBUTYRIC ACID OR 2,6-DIAMINO-3-METHYLHEXANOIC ACID AS PLANT IMMUNE RESISTANCE INDUCER” (NANJING TIANNONG BIOTECHNOLOGY CO., LTD., priority 2021, published 2025).

The test system of assay [1] is Arabidopsis thaliana. The assay is described as follows: Induced resistance of Arabidopsis thaliana to high temperature stress. As to conditions: for heat injury index (%): 45° C. 12 h, 7 days recovery; for PIABS (photosynthetic performance index): after 45° C. for 12 h. Type of assay: in vivo. As to the method: 2-amino-3-phenylbutyric acid was dissolved in distilled water and then gradiently diluted with distilled water into solutions of 100 nM, 1,000 nM, and 10,000 nM, and a blank control was set up, while 0.02% Tween 20 was added as surfactant. Four groups of replicates were set up for each concentration, and set up a blank control at room temperature. Arabidopsis thaliana seeds were planted in a pot with a diameter of 8.5 cm at about 50 seeds per pot, and grown in a greenhouse at a temperature of 22° C., a humidity of 60%-70%, and a light intensity of 100 μmol m^−2s^−1 (16 h light/8 h darkness). The treatment was initiated at the 21 d of seedling stage of Arabidopsis thaliana by spraying 2-amino-3-phenylbutyric acid solution on the leaf surface, and spraying twice within 24 hours. 24 hours after the second treatment, the plants were transferred to a light incubator at a temperature of 45° C. for high temperature stress treatment. After 12 h of treatment, they were treated in the dark at room temperature for 30 min, and then the chlorophyll fluorescence of the Arabidopsis thaliana leaves was measured with Plant Efficiency Handy PEA. Then, the plants were removed and transferred to a greenhouse at 25° C. for 7 days for recovery. The injured conditions of the plants were observed and the grade of hot injury was calculated, where the grading standard of heat injury is shown in Table 1, and the formula for calculating the heat injury index is as follows.
The concentrations of 2,6-diamino-3-methylhexanoic acid used in this trail are 0, 1, 10, 100 and 1,000 nM, and 0.02% Tween 20 is added as a surfactant. Four groups of replicates were set up. Other methods were the same as 2-amino-3-phenylbutyric acid, and the effect of 2,6-diamino-3-methylhexanoic acid to induce the resistance of Arabidopsis thaliana to high temperature stress was investigated.

The subject of assay [2] is ryegrass. The experiment in a line: Induced resistance of ryegrass to high temperature stress. Type of assay: in vivo. As to conditions: for heat injury index (%): 45° C. 12 h, 7 days recovery. As to the method: 2,6-diamino-3-methylhexanoic acid was dissolved in distilled water and then gradiently diluted with distilled water into solutions of 1 nM, 10 nM, 100 nM, and 1,000 nM, and a blank control was set up, while 0.02% Tween 20 was added as surfactant. Four groups of replicates were set up for each concentration, and set up a blank control at room temperature. Ryegrass seeds were weighed and planted in a pot with a diameter of 8.5 cm at 0.8 g per pot, and transferred to a greenhouse with a temperature of 25° C., a humidity of 60%-70%, and a light intensity of 200 μmol m^−2s^−1 (12 h light/12 h darkness). After 7 days of growth, ryegrass was treated by spraying 2,6-diamino-3-methylhexanoic acid solution on the leaf surface, and spraying twice within 24 hours. 24 hours after the second spray, the plants were transferred to a light incubator at 45° C. for high temperature stress treatment. After 12 hours of treatment, they were removed and transferred to a greenhouse at 25° C. for 7 days for recovery. The injured conditions of the plants were observed and the grade of hot injury was calculated, where the grading standard of heat injury is shown in Table 8, and the formula for calculating the heat injury index is as follows.

In assay [3] the test system is cotton (Sikang 1). The assay is described as follows: Induced resistance of cotton to salt stress (100 mM NaCl). Type of assay: in vivo. The following applies: three days. As to the method:
The experimental material was “Sikang 1” cotton, which was hydroponic cultured in a 500 mL plastic cup and ½ Hoagland nutrient solution was changed every three days. When the cotton seedling grew until the second true leaf fully unfolded, the leaf surface was sprayed with 2-amino-3-phenylbutyric acid solution. The concentrations used in this experiment were 0, 1, 10, 100, and 1,000 nM, and 0.02% Tween 20 was added as surfactant. The spraying was repeated once every 24 hours for a total of 2 times. On the second day after the treatment, NaCl was added to the ½ Hoagland nutrient solution to a final concentration of 100 mM to perform salt stress treatment. Each treatment was performed in triplicate. After three days of salt stress, rehydration treatment was performed, the salt injury symptoms of cotton were observed, and calculate the salt injury index was calculated. The formula is as follows: […]

Assay [4] relates to lysine monooxygenase. The following applies: Ohnishi et al., 1976; cited from earlier work.
Assay [5] relates to wheat powdery mildew. The assay is described as follows: Field trial of induced resistance of wheat to powdery mildew. Type of assay: in vivo. As to conditions: 1,000 nM, field spray. As to the method: A solution of 2-amino-3-phenylbutyric acid at a concentration of 1,000 nM (with 0.02% by volume of surfactant Tween 20) was sprayed onto the stems and leaves in the field. The treatment included spraying 0.02% by volume of surfactant Tween 20 as an auxiliary control, and Atailing (30 g/mu) as a positive control, with two replications per treatment. After the spray, the disease grade of wheat in each treatment group was investigated, and the morbidity degree was recorded according to the grading standard of wheat powdery in the “Pesticides-Guidelines for the Field Efficacy Trails” (I), and the disease index and the relative immunization effect were calculated in the same manner as those of tomato spotted wilt. After the harvested wheat seeds were dried, the thousand grain weight of wheat seeds from different treatments was measured.
Grading Standard of Wheat Powdery Mildew (per leaf): • Grade 1: The area of diseased spots accounts for 5% or less of the whole leaf area; • Grade 3: The area of diseased spots accounts for 6%-15% of the whole leaf; • Grade 5: The area of diseased spots accounts for 16%-25% of the whole leaf; • Grade 7: The area of diseased spots accounts for 26%-50% of the whole leaf; • Grade 9: The area of diseased spots accounts for 50% or more of the whole leaf area.

For assay [6], the system named is Leuconostoc dextranicum. As to conditions: Edelson & Keeley, 1963; cited from earlier work.
Assay [7] deals with arthritis in rats. As to conditions: 100 mg/kg and 200 mg/kg; Ren et al., 2019; cited from earlier work.
The mark [8] stands for this setting: 10,000 nM, versus untreated heat-stressed group.

Turning to `CC(CCCN)C(N)C(=O)O` (stereo not drawn) [2,6-diamino-3-methylhexanoic acid], the “heat injury index (%)” value was 49% in assay [1] (1 nM); 38% in assay [1] (10 nM); 29% in assay [1] (100 nM); 9% in assay [1] (1,000 nM); 60% in assay [2] (1 nM); 54% in assay [2] (10 nM). Further, the “heat injury index (%)” value is reported as 40% in assay [2] (100 nM) and 22% in assay [2] (1,000 nM). For the same molecule, the “PIABS (photosynthetic performance index)” value in assay [1] (1 nM) came to 1.84 ± 0.02 e; in assay [1] (10 nM), 3.58 ± 0.11 days; in assay [1] (100 nM), 5.73 ± 0.17 c; in assay [1] (1,000 nM) it was 9.49 ± 0.14 b. Further, the “increase of PIABS compared with the control group” value in assay [1] (1,000 nM) worked out at 36 fold. Moreover, the “decrease of heat injury index” value in assay [1] (1,000 nM, versus untreated heat-stressed group) turned out to be 64%; in assay [2] (1,000 nM) it was 69%. The “mortality (%)” value in assay [3] (1 nM) worked out at 46%; in assay [3] (10 nM), 40%; in assay [3] (100 nM), 27%; in assay [3] (1,000 nM), 23%. In addition, the “salt injury index (%)” value in assay [3] (1 nM) stood at 53%; in assay [3] (10 nM) it was 49%; in assay [3] (100 nM), 42%; in assay [3] (1,000 nM) it was 36%. Further, the “substrate activity for lysine monooxygenase” value in assay [4] is “no substrate activity”.

Regarding `CC(c1ccccc1)C(N)C(=O)O` (stereo not drawn) [2-amino-3-phenylbutyric acid], in assay [5], the “relative immunization effect (%)” value was found to be 51.72%, the “thousand grain weight” value was 38.87 g and the “thousand grain weight (g)” value was found to be 38.87 ± 0.20 a g. Further, in assay [1] (100 nM), the “heat injury index (%)” value came out at 47% and the “PIABS (photosynthetic performance index)” value was found to be 26.13 ± 7.37 bc. Moreover, in assay [1] (1,000 nM), the “heat injury index (%)” value is listed as 31% and the “PIABS (photosynthetic performance index)” value came to 27.27 ± 3.93 bc. Moreover, in assay [1] (10,000 nM), the “heat injury index (%)” value was 16% and the “PIABS (photosynthetic performance index)” value is 33.40 ± 3.91 b. In addition, in assay [1] (setting [8]), the “decrease of heat injury index” value is on record as 56% and the “increase of PIABS” value is on record as 134%. Besides, in assay [3] (1 nM), the “mortality (%)” value came to 49% and the “salt injury index (%)” value is on record as 66.67%. Further, in assay [3] (10 nM), the “mortality (%)” value is reported as 46% and the “salt injury index (%)” value amounted to 55%. Also, in assay [3] (100 nM), the “mortality (%)” value was 32% and the “salt injury index (%)” value is given as 51%. Moreover, in assay [3] (1,000 nM), the “mortality (%)” value worked out at 28% and the “salt injury index (%)” value is 42%. Besides, in assay [6], the “effect on growth of Leuconostoc dextranicum” value is on record as “inhibited the growth”. For the same molecule, in assay [7], the “effect on arthritis in rats” value is on record as “can alleviate arthritis”.
